We go through 3 compounds from EPA's ToxRefDB 2.

For data set [1], the system named is rat. Particulars: Multigenerational reproductive toxicity study, sprague dawley, Oral, Feed, dose end: 3 generation.
Data set [2] deals with rat. As to conditions: Combined chronic toxicity/carcinogenicity, fischer, Oral, Feed, dose end: 105 week, group: systemic.
In data set [3] the test system is rat. Particulars: Prenatal developmental toxicity study, fischer, Oral, Feed, dose end: 20 GD.
Data set [4] relates to mouse. Particulars: Developmental neurotoxicity study; cd1; Oral; Feed; dose end: 63 PND; group: cannot be grouped; reproductive / offspring survival early / dead fetuses / dead fetuses.
Data set [5] has as its system mouse. As to conditions: Combined chronic toxicity/carcinogenicity, b6c3f1, Oral, Feed, dose end: 105 week, group: systemic.
Data set [6] has as its system rat. Particulars: Subchronic oral toxicity in rodents, sprague dawley, Feed, dose end: 13 week, group: systemic, systemic / clinical chemistry / alanine aminotransferase (alt/sgpt) / alanine aminotransferase (alt/sgpt) + systemic / clinical chemistry / ….
Data set [7] deals with rat. As to conditions: Subchronic oral toxicity in rodents, fischer, Feed, dose end: 11 week, group: systemic, systemic / in life observation / body weight / body weight.
Data set [8] has as its system mouse. Particulars: Carcinogenicity; b6c3f1; Oral; Feed; dose end: 101 week; group: systemic; systemic / in life observation / body weight / body weight + systemic / pathology microscopic / urinary bladder / inflammation.
Data set [9] relates to rat. Particulars: Carcinogenicity, fischer, Oral, Feed, dose end: 100 week, group: systemic.
For a further data set, the system named is rabbit. As to conditions: Subchronic dermal toxicity, new zealand white, Topical, dose end: 13 week, group: systemic, systemic / in life observation / clinical signs / erythema + systemic / pathology gross / skin / [other] + systemic / pathology microscopic….
[10] abbreviates: group: offspring, developmental / developmental landmark / vaginal opening / vaginal opening + systemic / in life observation / body weight / offspring (pup) ….
Where [11] appears, read: group: parental, systemic / in life observation / body weight / body weight + systemic / organ weight / kidney / absolute + systemic / organ weight / kidney….
Setting [12] is: group: reproductive, reproductive / reproductive performance / fertility / fertility + reproductive / offspring survival early / litter size / litter size.
Where [13] appears, read: systemic / in life observation / body weight / body weight gain.
Where [14] appears, read: group: developmental, systemic / in life observation / body weight / fetal weight.
The mark [15] stands for this setting: group: maternal, systemic / in life observation / body weight / body weight + systemic / in life observation / body weight / body weight gain + systemic / ….
Setting [16] is: group: maternal, systemic / organ weight / liver / absolute + systemic / organ weight / liver / relative to body weight + systemic / in life observation / ….
Where [17] appears, read: systemic / pathology microscopic / testes / degeneration + systemic / pathology microscopic / liver / carcinoma.
The mark [18] stands for this setting: systemic / in life observation / body weight / body weight + systemic / pathology gross / eye / opacity.

By LOAEL is commonly meant the lowest tested level that showed an adverse finding. As usually defined, the NOAEL is the highest dose or exposure tested at which no adverse effect was seen. Regarding `CCCCC(CC)COC(=O)c1ccccc1C(=O)OCC(CC)CCCC` (stereo not given) [Di(2-ethylhexyl) phthalate], the LEL is 391 mg/kg/day in the data set on rat [1] (setting [10]); 48 mg/kg/day in the data set with rat [1] (group: parental, systemic / organ weight / liver / relative to body weight + systemic / pathology microscopic / kidney / dilatation + systemic / pathology …); 391 mg/kg/day in the data set on rat [1] (setting [12]); 300 mg/kg/day in the data set with rat [2] (setting [13]); 666 mg/kg/day with rat [3] (setting [14]); 357 mg/kg/day in the data set with rat [3] (setting [16]). The LEL in the data set with mouse [4] stood at 171 mg/kg/day; in the data set on mouse [5] (setting [17]) it was 900 mg/kg/day; in the data set on rat [6] it was 0.25 mg/kg/day. The LOAEL with rat [1] (setting [10]) was > 391 mg/kg/day; with rat [1] (setting [11]), > 391 mg/kg/day; in the data set on rat [1] (setting [12]), > 391 mg/kg/day; in the data set on rat [2] (systemic / in life observation / body weight / body weight gain + systemic / pathology microscopic / testes / degeneration), 600 mg/kg/day; in the data set on rat [3] (setting [14]) it was 666 mg/kg/day; with rat [3] (setting [15]), 666 mg/kg/day. Further, the figures for the LOAEL in the data set on mouse [5] (systemic / pathology microscopic / testes / degeneration) and in the data set with rat [6] were 900 mg/kg/day and > 250 mg/kg/day, respectively. Besides, the NEL with rat [1] (setting [10]) is 48 mg/kg/day; in the data set with rat [1] (setting [11]), 14 mg/kg/day; with rat [1] (group: reproductive, reproductive / reproductive performance / fertility / fertility), 48 mg/kg/day; in the data set on rat [2] (setting [13]), < 300 mg/kg/day; in the data set on rat [3] (setting [14]), 357 mg/kg/day; in the data set on rat [3] (setting [16]), < 357 mg/kg/day. Besides, the NEL with mouse [4] was 56 mg/kg/day; in the data set on mouse [5] (systemic / pathology microscopic / liver / carcinoma + systemic / in life observation / body weight / body weight + systemic / in life …) it was 450 mg/kg/day; with rat [6], < 0.25 mg/kg/day. Moreover, the NOAEL in the data set with rat [1] (setting [10]) is ≥ 391 mg/kg/day; in the data set on rat [1] (setting [11]) it was ≥ 391 mg/kg/day; in the data set with rat [1] (setting [12]) it was ≥ 391 mg/kg/day; with rat [2] (systemic / in life observation / body weight / body weight gain + systemic / pathology microscopic / liver / carcinoma + systemic / in life …), 300 mg/kg/day; in the data set on rat [3] (setting [14]), 357 mg/kg/day; in the data set on rat [3] (setting [15]), 357 mg/kg/day. The NOAEL in the data set with mouse [5] (setting [17]) is 450 mg/kg/day; in the data set with rat [6], ≥ 250 mg/kg/day.
Take `O=NN(c1ccccc1)c1ccccc1` [N-Nitrosodiphenylamine]: the LEL in the data set with rat [7] turned out to be 200 mg/kg/day; in the data set with mouse [8] it was 347 mg/kg/day; in the data set with rat [9] (setting [18]) it was 50 mg/kg/day. Further, the LOAEL is 200 mg/kg/day in the data set with rat [7], 347 mg/kg/day in the data set on mouse [8] and 200 mg/kg/day in the data set with rat [9] (systemic / pathology microscopic / urinary bladder / hyperplasia). For the same compound, the NEL in the data set on mouse [8] was < 347 mg/kg/day; in the data set with rat [9] (setting [18]) it was < 50 mg/kg/day. In addition, the NOAEL in the data set on mouse [8] was < 347 mg/kg/day; in the data set on rat [9] (systemic / pathology microscopic / urinary bladder / hyperplasia + systemic / in life observation / body weight / body weight + systemic / …), 50 mg/kg/day.
As for `O=C([O-])c1ccc2ccccc2c1.O=C([O-])c1ccc2ccccc2c1.[Zn+2]` [Zinc naphthenate], the NOAEL with rabbit was < 100 mg/kg/day.
